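Where inhibition never reached the appropriate level, the endpoint shown equals the highest concentration tested. Otherwise, values were interpolated linearly from a five-concentration, 48-hour dose response in 96-well plates. GI50 is the concentration that inhibits growth by half.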 Activity calls are given as the source filed them. Rule as the data show it: active = GI50 up to about 1.1 µM and inactive = higher.
Experiments:
Assay in all cases: NCI-60 cell line screen, 48 h
HOP-62 = test system: HOP-62
OVCAR-3 = test system: OVCAR-3
HOP-92 = test system: HOP-92
SNB-78 = test system: SNB-78
M14 = test system: M14
SF-295 = test system: SF-295
SF-268 = test system: SF-268
HOP-18 = test system: HOP-18
HCT-116 = test system: HCT-116
SK-OV-3 = test system: SK-OV-3
786-0 = test system: 786-0
T47D = test system: T47D
K562 = test system: K562
SNB-19 = test system: SNB-19
DMS-273 = test system: DMS-273
RXF 393 = test system: RXF 393
OVCAR-5 = test system: OVCAR-5
U-251 = test system: U-251
XF498 = test system: XF498
NCI/ADR-RES = test system: NCI/ADR-RES

Measured: GI50

Cc1cc(O)nc(NN2C(Cl)C(=O)C2c2ccc(O)cc2)n1 (stereo not given)
inactive: HOP-62 6.17 µM | OVCAR-3 6.28 µM | HOP-92 14.9 µM | SNB-78 5.87 µM | M14 11.4 µM | SF-295 9.48 µM | SF-268 8.45 µM | HOP-18 14.6 µM | HCT-116 4.81 µM | SK-OV-3 11.3 µM | 786-0 5.14 µM | T47D 12.7 µM | K562 2.37 µM | SNB-19 11 µM | DMS-273 5.32 µM | RXF 393 4.26 µM | OVCAR-5 17.8 µM | U-251 5.4 µM

CC(=O)n1c(=O)c2cc3c(=O)n(-c4cccc(C#N)c4)c(=O)c3cc2c1=O
inactive: HOP-62 45.5 µM | OVCAR-3 > 100 µM | HOP-92 39.2 µM | SNB-78 60.3 µM | M14 > 100 µM | SF-295 60.7 µM | SF-268 > 100 µM | HOP-18 > 100 µM | HCT-116 > 100 µM | SK-OV-3 > 100 µM | 786-0 90.4 µM | K562 > 100 µM | SNB-19 67 µM | DMS-273 88.1 µM | RXF 393 > 100 µM | OVCAR-5 > 100 µM | U-251 24.2 µM

CSc1nc2nccnc2c(=O)[nH]1
inactive: HOP-62 > 100 µM | HOP-92 96.2 µM | M14 > 100 µM | SF-295 > 100 µM | SF-268 > 100 µM | HOP-18 > 100 µM | HCT-116 > 100 µM | SK-OV-3 > 100 µM | 786-0 > 100 µM | K562 > 100 µM | SNB-19 > 100 µM | DMS-273 > 100 µM | RXF 393 > 100 µM | OVCAR-5 > 100 µM | XF498 > 100 µM | U-251 > 100 µM

CC1=NN(c2ccccc2)C(=O)C1C(=O)C(=O)Nc1ccc(C)cc1C (stereo not given)
inactive: HOP-62 > 100 µM | OVCAR-3 > 100 µM | HOP-92 > 94.2 µM | SNB-78 > 100 µM | M14 > 100 µM | SF-295 > 100 µM | SF-268 > 100 µM | HOP-18 > 100 µM | HCT-116 > 100 µM | SK-OV-3 > 100 µM | 786-0 > 100 µM | T47D > 100 µM | NCI/ADR-RES > 100 µM | K562 > 100 µM | SNB-19 > 100 µM | DMS-273 > 100 µM | RXF 393 > 100 µM | OVCAR-5 > 100 µM | U-251 > 100 µM

Source: ChEMBL document CHEMBL1201862, “PubChem BioAssay data set” (2004)
